Measurements reported in patent US10882854B2, “Heterocyclic compounds and use thereof” (National Health Research Institutes, priority 2017, dated 2021).
Blank lines part the entries; values can stand above or below the molecule they belong to.

Legend:
[1] = tested on: T-cell acute lymphoblastic leukemia (CCRF-CEM) cells; assay: Inhibition of CXCL12-induced chemotaxis in lymphoblastic leukemia cells; format: cell-based; settings: Homo sapiens, CXCL12 10 nM, 2.5 h at 37 °C, read-out: concentration required to inhibit chemotaxis by 50% (EC50)
Procedure: The response of cancer cells to compounds of Formula (I) was evaluated using the chemotaxis assay as set forth below.
T-cell acute lymphoblastic leukemia (CCRF-CEM) cells in Roswell Park Memorial Institute medium (RPMI) 1640 supplemented with 10% […] were incubated with 250 μL of a test compound. The assay was performed using Millicell Hanging Cell Culture Inserts (pore size 5 μm; 24-well plate; Millipore, Bedford, Mass., USA). After 10 minutes at 37° C., 250 μL of cells pre-incubated with a test compound were plated per well in the upper chambers of the inserts at a density of 2.5×10^5 cells/well. 300 μL/well medium containing CXCL12 (10 nM) and a test compound were plated in the lower chamber of the insert. After 2.5 h at 37° C., cells in both chambers of inserts were measured by flow cytometry (Guava Technologies, Hayward, Calif., USA).

human CXCR4 = target: T1, human CXCR4 (Homo sapiens, UniProt P61073); assay: Inhibition of 125I-CXCL12 radioligand binding, membranes of human CXCR4-transfected HEK293 cells; settings: 0.16 nM 125I-CXCL12, 60 min at 30 °C, read-out: concentration required to inhibit binding of 125I-CXCL12 to CXCR4 by 50% (IC50)
T1 construct: expressed in transfected cells; host or cells: HEK293 cells (membranes)
Procedure: Binding competition between the compounds of Formula (I) and human CXCL12 was assessed using a radioligand binding assay as described below.
Membranes (2-4 μg) prepared from human CXCR4-transfected HEK293 cells in 40 μL of assay buffer (50 mM HEPES-NaOH, pH 7.4, 100 mM NaCl, 5 mM MgCl2, 1 mM CaCl2, 0.5% bovine serum albumin) were incubated with 20 μL of radio-labeled ^125I-CXCL12 (0.16 nM) and 20 μL of a test compound in an assay plate (Costar Corning, Cambridge, Mass.). After 60 minutes at 30° C., the incubation was terminated by transferring the resulting reaction mixture to a 96-well GF/B filter plate (Millipore Corp., Billerica, Mass.) and filtered via a manifold. The plate was washed with 100 μL of ice-cold wash buffer (50 mM HEPES-NaOH, pH 7.4, 100 mM NaCl) four times. The radioactivity bound to the filter was measured by Topcount (PerkinElmer Inc., Waltham, Mass.).

[2] = tested on: Hematopoietic stem cells (CD34+) and endothelial progenitor cells (CD133+); assay: Mobilization of stem/progenitor cells into peripheral blood in mice; format: in vivo, C57BL/6 male mice
[3] = tested on: acute Kidney Injury (AKI) model; assay: Ischemia-reperfusion acute kidney injury (AKI) model in rats; format: in vivo, male Sprague-Dawley rats; settings: 6 mg/Kg subcutaneous 40 min before AKI, blood 24 h after induction of AKI
Procedure: The efficacy of five compounds of Formula (I) in treating Ischemia-Reperfusion injury was assessed using both an acute kidney injury model, an ischemic stroke model, and a limb ischemia model. These five compounds are Compounds 13, 35, 40, 45, and 46. In an acute Kidney Injury (AKI) model, each of the five compounds was dissolved in saline to form a solution. The solution was administered to male Sprague-Dawley rats (National Laboratory Animal Center, Taipei, Taiwan) subcutaneously at a dosage of 6 mg/Kg. 40 minutes after the subcutaneous injection, AKI was induced in the rats by clamping their bilateral renal vein and artery for one hour followed by releasing the vessel clips to allow 24-h reperfusion. Whole blood was collected at 24-h after induction of AKI. Blood urea nitrogen (BUN) and serum creatinine (Scr), two markers that increase upon kidney injury, were measured using a FUJI DRI-CHEM 3500s analyzer (Fujifilm, Tokyo, Japan). Non-AKI rats and AKI rats treated with saline were used as controls.

T1 sequence (P61073 whole entry): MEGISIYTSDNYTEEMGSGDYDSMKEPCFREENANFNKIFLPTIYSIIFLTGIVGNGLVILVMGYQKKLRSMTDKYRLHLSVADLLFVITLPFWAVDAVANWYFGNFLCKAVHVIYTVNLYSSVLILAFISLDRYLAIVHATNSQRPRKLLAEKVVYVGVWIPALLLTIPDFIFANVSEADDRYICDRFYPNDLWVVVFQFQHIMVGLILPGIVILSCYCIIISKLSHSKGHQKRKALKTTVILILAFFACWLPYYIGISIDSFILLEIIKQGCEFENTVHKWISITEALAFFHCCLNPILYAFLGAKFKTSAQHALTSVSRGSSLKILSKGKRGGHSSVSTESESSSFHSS

Structure (SMILES): c1ccc2c(NC3CCNCC3)nc(NCc3nnnn3CCCNCCCNC3CCCCC3)nc2c1 [Compound 14]
EC50 [1]: < 50 nM
IC50 (human CXCR4): 50 to 100 nM

Structure (SMILES): c1ccc2c(NC3CCNCC3)nc(NCc3nc(CCCNCCCNC4CCCCC4)cs3)nc2c1 [Compound 3]
EC50 [1]: < 50 nM
IC50 (human CXCR4): < 50 nM

Structure (SMILES): c1ccc2c(NC3CCNCC3)nc(NCc3coc(CCCNCCCNC4CCCCC4)n3)nc2c1 [Compound 2]
EC50 [1]: < 50 nM
IC50 (human CXCR4): < 50 nM

Structure (SMILES): c1ccc2c(NC3CCNCC3)nc(NCc3cc(CCCNCCCNC4CCCCC4)on3)nc2c1 [Compound 1]
EC50 [1]: < 50 nM
IC50 (human CXCR4): < 50 nM

Structure (SMILES): Cc1cc(NC2CCN(C(=O)CCNCC(=O)O)CC2)nc(NCc2cc(CCCNCCCNC3CCCCC3)on2)n1 [Compound 39]
EC50 [1]: < 50 nM
IC50 (human CXCR4): 50 to 100 nM

Structure (SMILES): Cc1cc(NC2CCNCC2)nc(NCc2nnc(CCCNCCCNC3CCCCC3)o2)n1 [Compound 20]
EC50 [1]: < 50 nM
IC50 (human CXCR4): 50 to 100 nM

Structure (SMILES): N[C@@H](CCC(=O)NCCN1CCC(Nc2nc(NCc3nc(CCCNCCCNC4CCCCC4)cs3)nc3ccccc23)CC1)C(=O)NCCP(=O)(O)O [Compound 49]
EC50 [1]: < 50 nM
IC50 (human CXCR4): 50 to 100 nM
hematopoietic stem cell mobilization combined with G-CSF (CFU-GM numbers) [2]: mobilize hematopoietic stem cells synergistically

Structure (SMILES): N[C@@H](CCC(=O)N1CCC(Nc2nc(NCc3coc(CCCNCCCNC4CCCCC4)n3)nc3ccccc23)CC1)C(=O)O [Compound 30]
EC50 [1]: < 50 nM
IC50 (human CXCR4): < 50 nM

Structure (SMILES): Cc1cc(NC2CCNCC2)nc(NCc2nc(CCCNCCCNC3CCCCC3)cs2)n1 [Compound 17]
EC50 [1]: < 50 nM
IC50 (human CXCR4): < 50 nM

Structure (SMILES): O=C(O)CNCCCC(=O)N1CCC(Nc2nc(NCc3nnn(CCCNCCCNC4CCCCC4)n3)nc3ccccc23)CC1 [Compound 59]
EC50 [1]: < 50 nM
IC50 (human CXCR4): < 50 nM

Structure (SMILES): N[C@@H](CCC(=O)NCCN1CCC(Nc2nc(NCc3cc(CCCNCCCNC4CCCCC4)on3)nc3ccccc23)CC1)C(=O)NCCP(=O)(O)O [Compound 47]
EC50 [1]: < 50 nM
IC50 (human CXCR4): 50 to 100 nM

Structure (SMILES): N[C@@H](CCC(=O)N1CCC(Nc2nc(NCc3noc(CCCNCCCNC4CCCCC4)n3)nc3ccccc23)CC1)C(=O)O [Compound 33]
EC50 [1]: 50 to 150 nM
IC50 (human CXCR4): 50 to 100 nM

Structure (SMILES): c1ccc2c(NC3CCNCC3)nc(NCc3nnc(CCCNCCCNC4CCCCC4)s3)nc2c1 [Compound 7]
EC50 [1]: < 50 nM
IC50 (human CXCR4): < 50 nM

Structure (SMILES): Cc1cc(NC2CCN(C(=O)CCNCC(=O)O)CC2)nc(NCc2nc(CCCNCCCNC3CCCCC3)cs2)n1 [Compound 41]
EC50 [1]: < 50 nM
IC50 (human CXCR4): 100 to 1000 nM

Structure (SMILES): Cc1cc(NC2CCNCC2)nc(NCc2nnn(CCCNCCCNC3CCCCC3)n2)n1 [Compound 23]
EC50 [1]: < 50 nM
IC50 (human CXCR4): < 50 nM

Structure (SMILES): N[C@@H](CCC(=O)NCCN1CCC(Nc2nc(NCc3coc(CCCNCCCNC4CCCCC4)n3)nc3ccccc23)CC1)C(=O)NCCP(=O)(O)O [Compound 48]
EC50 [1]: < 50 nM
IC50 (human CXCR4): 50 to 100 nM

Structure (SMILES): Cc1cc(NC2CCN(C(=O)CCNCC(=O)O)CC2)nc(NCc2nnn(CCCNCCCNC3CCCCC3)n2)n1 [Compound 46]
EC50 [1]: 50 to 150 nM
BUN level relative to that induced in saline-treated AKI rats [3]: 22%
Scr (serum creatinine) level relative to that induced in saline-treated AKI rats [3]: 22%
IC50 (human CXCR4): 50 to 100 nM

Structure (SMILES): c1ccc2c(NC3CCNCC3)nc(NCc3nnn(CCCNCCCNC4CCCCC4)n3)nc2c1 [Compound 13]
EC50 [1]: < 50 nM
BUN level relative to that induced in saline-treated AKI rats [3]: 25%
Scr (serum creatinine) level relative to that induced in saline-treated AKI rats [3]: 56%
IC50 (human CXCR4): < 50 nM

Structure (SMILES): Cc1cc(NC2CCNCC2)nc(NCc2nnc(CCCNCCCNC3CCCCC3)s2)n1 [Compound 21]
EC50 [1]: < 50 nM
IC50 (human CXCR4): < 50 nM

More lines, main results first:

EC50 [1]: < 50 nM
IC50 (human CXCR4): 50 to 100 nM
Structure (SMILES): Cc1cc(NC2CCN(C(=O)CCCNCC(=O)O)CC2)nc(NCc2nnn(CCCNCCCNC3CCCCC3)n2)n1 [Compound 62]

EC50 [1]: < 50 nM
IC50 (human CXCR4): < 50 nM
Structure (SMILES): Cc1cc(NC2CCNCC2)nc(NCc2coc(CCCNCCCNC3CCCCC3)n2)n1 [Compound 16]

EC50 [1]: < 50 nM
IC50 (human CXCR4): 50 to 100 nM
Structure (SMILES): N[C@@H](CCC(=O)N1CCC(Nc2nc(NCc3nc(CCCNCCCNC4CCCCC4)cs3)nc3ccccc23)CC1)C(=O)O [Compound 31]

EC50 [1]: < 50 nM
IC50 (human CXCR4): 50 to 100 nM
Structure (SMILES): CCc1cc(NC2CCNCC2)nc(NCc2nnn(CCCNCCCNC3CCCCC3)n2)n1 [Compound 26]

EC50 [1]: < 50 nM
IC50 (human CXCR4): 50 to 100 nM
Structure (SMILES): N[C@@H](CCC(=O)N1CCC(Nc2nc(NCc3nc(CCCNCCCNC4CCCCC4)co3)nc3ccccc23)CC1)C(=O)O [Compound 32]

EC50 [1]: < 50 nM
IC50 (human CXCR4): 50 to 100 nM
Structure (SMILES): N[C@@H](CCC(=O)N1CCC(Nc2nc(NCc3nnc(CCCNCCCNC4CCCCC4)[nH]3)nc3ccccc23)CC1)C(=O)O [Compound 38]

EC50 [1]: < 50 nM
IC50 (human CXCR4): < 50 nM
Structure (SMILES): N[C@@H](CCC(=O)N1CCC(Nc2nc(NCc3cc(CCCNCCCNC4CCCCC4)on3)nc3ccccc23)CC1)C(=O)O [Compound 29]

EC50 [1]: < 50 nM
IC50 (human CXCR4): < 50 nM
Structure (SMILES): Cc1cc(NC2CCNCC2)nc(NCc2nc(CCCNCCCNC3CCCCC3)co2)n1 [Compound 18]

EC50 [1]: 50 to 150 nM
IC50 (human CXCR4): 50 to 100 nM
Structure (SMILES): N[C@@H](CCC(=O)N1CCC(Nc2nc(NCc3nnc(CCCNCCCNC4CCCCC4)o3)nc3ccccc23)CC1)C(=O)O [Compound 34]

EC50 [1]: < 50 nM
IC50 (human CXCR4): 50 to 100 nM
Structure (SMILES): O=C(O)CNCCC(=O)N1CCC(Nc2nc(NCc3nnn(CCCNCCCNC4CCCCC4)n3)nc3ccccc23)CC1 [Compound 61]

EC50 [1]: < 50 nM
IC50 (human CXCR4): 50 to 100 nM
Structure (SMILES): Cc1cc(NC2CCNCC2)nc(NCCc2cn(CCCCNCCCNC3CCCCC3)cn2)n1 [Compound 22]

EC50 [1]: < 50 nM
IC50 (human CXCR4): < 50 nM
Structure (SMILES): Cc1cc(NC2CCNCC2)nc(NCc2cc(CCCNCCCNC3CCCCC3)on2)n1 [Compound 15]

EC50 [1]: < 50 nM
IC50 (human CXCR4): 50 to 100 nM
Structure (SMILES): N[C@@H](CCC(=O)N1CCC(Nc2nc(NCc3nnn(CCCNCCCNC4CCCCC4)n3)nc3ccccc23)CC1)C(=O)O [Compound 37]

EC50 [1]: 50 to 150 nM
IC50 (human CXCR4): 50 to 100 nM
Structure (SMILES): N[C@@H](CCC(=O)NCCN1CCC(Nc2nc(NCc3nc(CCCNCCCNC4CCCCC4)co3)nc3ccccc23)CC1)C(=O)NCCP(=O)(O)O [Compound 50]
hematopoietic stem cell mobilization combined with G-CSF (CFU-GM numbers) [2]: mobilize hematopoietic stem cells synergistically

EC50 [1]: < 50 nM
IC50 (human CXCR4): < 50 nM
Structure (SMILES): c1ccc2c(NC3CCNCC3)nc(NCc3nnc(CCCNCCCNC4CCCCC4)o3)nc2c1 [Compound 6]

EC50 [1]: < 50 nM
IC50 (human CXCR4): 50 to 100 nM
Structure (SMILES): c1ccc2c(NC3CCNCC3)nc(NCCc3cn(CCCCNCCCNC4CCCCC4)cn3)nc2c1 [Compound 8]

EC50 [1]: < 50 nM
IC50 (human CXCR4): 50 to 100 nM
Structure (SMILES): N[C@@H](CCC(=O)N1CCC(Nc2nc(NCc3nnc(CCCNCCCNC4CCCCC4)s3)nc3ccccc23)CC1)C(=O)O [Compound 35]
BUN level relative to that induced in saline-treated AKI rats [3]: 15%
Scr (serum creatinine) level relative to that induced in saline-treated AKI rats [3]: 22%

EC50 [1]: < 50 nM
IC50 (human CXCR4): 50 to 100 nM
Structure (SMILES): Cc1cc(NC2CCNCC2)nc(NCc2nnc(CCCNCCCNC3CCCCC3)[nH]2)n1 [Compound 24]
